Laboratory results reported in US20050014680A1, “Methods and compositions for enhancing neuron growth and survival” (priority 2003, published 2005).

Assays:
[1] = system: dissociated E10.5 trigeminal neurons; experiment: Survival assay, Tunel staining of low-density dissociated E10.5 trigeminal neurons; type: cell-based, mouse; settings: serum-free medium, 24 hr; 150 nM Kn252a; 100 ng/ml FK506, 1 μg/ml CsA
Source text: Embryos were obtained from timed pregnancies with the noon of the plug date defined as […]. For whole-mount studies, embryos were processed and stained with anti-Neurofilament antibody (clone 2H3, DSHB) and processed for DAB or fluorescent staining. Sections were stained with anti-NF-M antibody, anti-TAG-1 antibody, anti-Lim1/2, anti-Pax7, anti-Nkx2.2, anti HNF-3b, anti-islet-1 (all from DSHB), Tuj-1 (ABR) and anti-TrkC (Chemicon). Secondary antibodies used were HRP conjugated goat anti-mouse antibody (Jackson Immunoresearch), Alexa-594 and Alexa-488 conjugated goat anti-mouse antibody (Molecular Probes) as well as anti-mouse and anti-rabbit ABC kits (Vector). Tunel assays were performed according to the manufacturer's recommendations (Roche).
Trigeminal ganglia were incubated for 5 minutes at 37° C. with 10 mg/ml trypsin (Sigma)+DNAse (Sigma) in calcium- and magnesium-free (CMF) HBSS. After removal of the trypsin solution, the ganglia were washed 3 times with Hams F12 medium containing 10% heat-inactivated horse serum washed 3 times with CMF-HBSS and were gently triturated in 1 ml CMF-HBSS+DNAse with a fire-polished, siliconised Pasteur pipettes to give a single cell suspension. […]

[2] = system: NFAT-dependent transcription; experiment: NFAT-luciferase reporter assay in cortical neurons; type: cell-based, mouse and rat; settings: E15.5 cultured cortical neurons, 100 ng/ml, lysed 18 hrs after stimulation
Description: (§1) The reporter plasmid NFAT-Luciferase and the EGFP-NFATc4 plasmid have been described elsewhere (Graef et al., 1999). The TrkA constructs have been previously described (Ming et al., 1999). For luciferase assays the cells were treated 16 hrs after transfection with 100 ng/ml recombinant BDNF (Gibco) or 100 ng/ml recombinant NGF. For studies with FK506/CsA the cells were preincubated for 10 min with the inhibitors before stimulation and the inhibitors were present during the stimulation. Cells were lysed for luciferase assays 18 hrs after stimulation and luciferase assays performed according to standard protocols. For microscopy, neurons were fixed in 4% formaldehyde/PBS. Co-transfected m yc-epitope tagged Trk-A was visualized by staining with anti-myc antibody (clone 4E10, Pharmingen), followed by Alexa-594 conjugated goat anti-mouse antibody (Molecular Probes).

NFATc4 = experiment: Cytoplasmic-to-nuclear translocation of EGFP-NFATc4 in cortical neurons; type: cell-based, mouse and rat
Description: as §1

[3] = system: trigeminal neuron growth cones; experiment: Growth cone morphology and collapse, trigeminal explant cubes stained with phalloidin; type: cell-based, mouse; settings: c2/c3/c4 triple mutant ganglia or wild-type ganglia cultured with CsA and FK506, 30 min
Description: E10.5 trigeminal explants were cultured in either collagen or matrigel (Becton-Dickinson) gels in the presence of NT-3 (Gibco) and NGF (Gibco) as previously described (O'Connor and Tessier-Lavigne, 1999). The explants were then fixed in 4% PFA/PBS and axons were visualized by wholemount immunostaining with the anti-NF-M antibody (O'Connor and Tessier-Lavigne, 1999). For cultures on laminin, eight-well chamber tissue culture slides were coated with poly-L-lysine followed by laminin. Trigeminal ganglia were either dissociated or cut into small cubes and cultured in medium supplemented with NT-3 and NGF. For assessing growth cone morphology cells were fixed with 25% sucrose in 4% PFA/PBS and stained with either Alexa 594-phalloidin (Molecular Probes) alone or plus anti-III β-tubulin antibody (Tuj-1, Covance).

In the case of `COC(=O)[C@@]1(O)C[C@H]2O[C@]1(C)n1c3ccccc3c3c4c(c5c6ccccc6n2c5c31)C(=O)NC4` [Kn252a], the “cell death (Tunel-positive cells)” value [1] is reported as “even greater degree of cell death”.

For “NGF: recombinant NGF, nerve growth factor, a neurotrophin”, the “activation of NFAT-dependent transcription” value [2] was “did not activate transcription from this reporter unless TrkA was introduced”, the “nuclear translocation of EGFP-NFATc4, no TrkA transfected” value (NFATc4; E15.5 cortical neurons lacking TrkA (data not shown)) was “did not induce translocation” and the “nuclear translocation of EGFP-NFATc4, TrkA co-transfected” value (NFATc4; cortical neurons co-transfected with EGFP-NFATc4 and TrkA, 100 ng/ml NGF) was “led to rapid translocation of EGFP-NFATc4 into the nucleus”.

B1: Sema3A: semaphorin 3-A, induces growth cone collapse (protein, UniProt Q14563 21-771, looked up)
Semaphorin-3A: NYQNGKNNVPRLKLSYKEMLESNNVITFNGLANSSSYHTFLLDEERSRLYVGAKDHIFSFDLVNIKDFQKIVWPVSYTRRDECKWAGKDILKECANFIKVLKAYNQTHLYACGTGAFHPICTYIEIGHHPEDNIFKLENSHFENGRGKSPYDPKLLTASLLIDGELYSGTAADFMGRDFAIFRTLGHHHPIRTEQHDSRWLNDPKFISAHLISESDNPEDDKVYFFFRENAIDGEHSGKATHARIGQICKNDFGGHRSLVNKWTTFLKARLICSVPGPNGIDTHFDELQDVFLMNFKDPKNPVVYGVFTTSSNIFKGSAVCMYSMSDVRRVFLGPYAHRDGPNYQWVPYQGRVPYPRPGTCPSKTFGGFDSTKDLPDDVITFARSHPAMYNPVFPMNNRPIVIKTDVNYQFTQIVVDRVDAEDGQYDVMFIGTDVGTVLKVVSIPKETWYDLEEVLLEEMTVFREPTAISAMELSTKQQQLYIGSTAGVAQLPLHRCDIYGKACAECCLARDPYCAWDGSACSRYFPTAKRRTRRQDIRNGDPLTHCSDLHHDNHHGHSPEERIIYGVENSSTFLECSPKSQRALVYWQFQRRNEERKEEIRVDDHIIRTDQGLLLRSLQQKDSGNYLCHAVEHGFIQTLLKVTLEVIDTEHLEELLHKDDDGDGSKTKEMSNSMTPSQKVWYRDFMQLINHPNLNTMDEFCEQVWKRDRKQRRQRPGHTPGNSNKWKHLQENKKGRNRRTHEFERAPRSV
For B1, the “collapse of growth cones on matrigel” value [3] was “induced efficient collapse of growth cones”.

B2: BDNF: recombinant BDNF (Gibco), a neurotrophin (protein, UniProt P23560 19-247, looked up)
Neurotrophic factor BDNF …: APMKEANIRGQGGLAYPGVRTHGTLESVNGPKAGSRGLTSLADTFEHVIEELLDEDQKVRPNEENNKDADLYTSRVMLSSQVPLEPPLLFLLEEYKNYLDAANMSMRVRRHSDPARRGELSVCDSISEWVTAADKKTAVDMSGGTVTVLEKVPVSKGQLKQYFYETKCNPMGYTKEGCRGIDKRHWNSQCRTTQSYVRALTMDSKKRIGWRFIRIDTSCVCTLTIKRGR
With B2 the “activation of NFAT-dependent transcription” value [2] was “powerful activator of NFAT-dependent transcription” and the “time to nuclear translocation of EGFP-tagged NFATc4” value (NFATc4; E15.5 cortical neurons, 100 ng/ml BDNF) was at most 30 min.
